According to patent US12605396B2, “Methods of treating mastitis with an orthosomycin antimicrobial compound” (Intervet Inc., priority 2020, dated 2026):
Converted amounts (≈) assume the structure as drawn. “And” between values parts separate entries of the source, which are not always exact repeats. Identical values can stand only once. “Also recorded” adds a separate entry of the source. Like-named read-outs stand apart in the source and are kept apart here.

Tests used:
[1] = tested on: S. aureus; assay: MIC in bacteriological broth (CLSI VET01-A4); assay type: cell-based, Staphylococcus aureus; conditions: for S. aureus MIC, CAMHB: bacteriological broth (CAMHB), individual S. aureus isolates; for Activity against S. aureus isolates in bacteriological broth: different S. aureus isolates
Protocol: (§1) Minimal inhibitory concentrations (MIC) were determined in bacteriological broth according to Clinical and Laboratory Standard Institute (CLSI) guideline VET01-A4 [1]. The MIC results were interpreted according to the CLSI document VET01-S3 [2].

[2] = tested on: S. aureus; assay: MIC in full cream UHT milk with alamar Blue; assay type: cell-based, Staphylococcus aureus; conditions: for S. aureus MIC, milk: individual S. aureus isolates, in µg/mL; for Distribution of MIC values: isolates with MIC 0.125 μg/ml / Distribution of MIC values: isolates with MIC 0.25 μg/ml / Distribution of MIC values: isolates with MIC 0.5 μg/ml / Distribution of MIC values: isolates with MIC 1 μg/ml / Distribution of MIC values: isolates with MIC 2 μg/ml / Distribution of MIC values: isolates with MIC 4 μg/ml / Distribution of MIC values: isolates with MIC 8 μg/ml / Distribution of MIC values: isolates with MIC 16 μg/ml / Distribution of MIC values: isolates with MIC 32 μg/ml / Distribution of MIC values: isolates with MIC 64 μg/ml / Distribution of MIC values: isolates with MIC >64 μg/ml / Distribution of MIC values: isolates with MIC ≤0.063 μg/ml / MIC90: S. aureus (n = 20)
Protocol: (§2) For MIC determination in milk, the in vitro activity was determined by measuring the minimum inhibitory concentrations (MIC) according to CLSI document VET01-A4 [1] using full cream UHT milk as test medium. About 2 h before the end of the incubation 10 μL of alamar Blue® was added to each well of the microdilution trays, resulting in a final concentration of 10% of alamar Blue®. Blue color of the medium indicated no living cells (no bacterial growth) red/pink to white color of the medium indicated living cells (bacterial growth). The MIC results were interpreted according to the CLSI document VET01-S3 [2].

[3] = tested on: S. uberis; assay: MIC in bacteriological broth (CLSI VET01-A4); assay type: cell-based, Streptococcus uberis
Protocol: as §1

[4] = tested on: Strep. agalactiae; assay: MIC in bacteriological broth (CLSI VET01-A4); assay type: cell-based, Streptococcus agalactiae
Protocol: as §1

[5] = tested on: Strep. dysgalactiae; assay: MIC in bacteriological broth (CLSI VET01-A4); assay type: cell-based, Streptococcus dysgalactiae
Protocol: as §1

[6] = tested on: Truep. pyogenes; assay: MIC in bacteriological broth (CLSI VET01-A4); assay type: cell-based, Trueperella pyogenes
Protocol: as §1

[7] = tested on: mastitis-causing pathogens; assay: Antimicrobial activity against mastitis-causing pathogens (overall statement); assay type: cell-based; conditions: broth-dilution assay and milk
Protocol: as §1, §2

[8] = tested on: coa-neg Staph.; assay: MIC in bacteriological broth (CLSI VET01-A4); assay type: cell-based, coagulase-negative staphylococci
Protocol: as §1

[9] = broth, of 15 Strep. uberis isolates
[10] = broth, of 15 Staph. aureus isolates
[11] = broth, of 15 Strep. agalactiae isolates
[12] = broth, of 15 Strep. dysgalactiae isolates
[13] = broth, of 15 coa-neg Staph. isolates

SMILES: CC[C@@H](C(=O)[C@@H](C)[C@@H](O)[C@H](C)[C@@H]1O[C@@H]([C@@H](CC)C(=O)O)CC[C@@H]1C)[C@H]1O[C@]2(C=C[C@@H](O)[C@]3(CC[C@@](C)([C@H]4CC[C@](O)(CC)[C@H](C)O4)O3)O2)[C@H](C)C[C@@H]1C [Salinomycin, salinomycin]
- S. aureus MIC, CAMHB [1]: 0.25 (2×) and 1 and 0.5 (5×)
- Activity against S. aureus isolates in bacteriological broth ([1]; bacteriological broth): active
- Activity in milk [2]: no activity; also recorded: lost any activity
- S. aureus MIC, milk [2]: >32

SMILES: CC[C@@H](C(=O)[C@@H](C)[C@@H](O)[C@H](C)CCc1ccc(C)c(O)c1C(=O)O)[C@H]1O[C@](CC)([C@H]2CC[C@](O)(CC)[C@H](C)O2)C[C@@H]1C [Lasalocid, lasalocid]
- S. aureus MIC, CAMHB [1]: 0.25 (3×) and 1 (4×) and 0.5
- Activity against S. aureus isolates in bacteriological broth ([1]; bacteriological broth): active
- Activity in milk [2]: no activity; also recorded: lost any activity
- S. aureus MIC, milk [2]: >32

SMILES: CC[C@@]1([C@@H]2O[C@@H]([C@H]3O[C@@](O)(CO)[C@H](C)C[C@@H]3C)C[C@@H]2C)CC[C@H]([C@]2(C)CC[C@]3(C[C@H](O)[C@@H](C)[C@@H]([C@@H](C)[C@@H](OC)[C@H](C)C(=O)O)O3)O2)O1 [Monensin, monensin]
- S. aureus MIC, CAMHB [1]: 0.25 (2×) and 2 (6×)
- Activity against S. aureus isolates in bacteriological broth ([1]; bacteriological broth): active
- Activity in milk [2]: no activity; also recorded: lost any activity
- S. aureus MIC, milk [2]: >32

SMILES: COC[C@H]1O[C@@H](O[C@@H]2OC[C@@H]3O[C@@]4(OC[C@@H](OC(=O)c5c(C)cc(O)cc5O)[C@@H]5OCO[C@H]54)O[C@H]3[C@H]2O)[C@@H](OC)[C@@H](O)C1O[C@@H]1O[C@H](C)[C@H](OC)[C@H](OC2O[C@H](C)[C@H]3O[C@]4(C[C@@H](O)[C@H](O[C@H]5C[C@@H](O[C@H]6C[C@](C)([N+](=O)[O-])[C@@H](OC)[C@H](C)O6)[C@H](OC(=O)c6c(C)c(Cl)c(O)c(Cl)c6OC)[C@@H](C)O5)[C@@H](C)O4)O[C@]3(C)[C@@H]2O)[C@H]1O (stereo partly shown) [evernimicin]
- MIC50 ([3]; Streptococcus uberis, bacteriological broth, 15 Strep. uberis isolates tested, read-out: MIC50): 0.25 µg/mL (≈ 0.153 µM)
- MIC90 ([3]; Streptococcus uberis, bacteriological broth, 15 Strep. uberis isolates tested, read-out: MIC90): 0.5 µg/mL (≈ 0.306 µM)
- MIC ([3]; Streptococcus uberis, bacteriological broth, 15 Strep. uberis isolates tested, read-out: Maximum MIC): 0.5 µg/mL (≈ 0.306 µM)
- MIC ([3]; Streptococcus uberis, bacteriological broth, 15 Strep. uberis isolates tested, read-out: Minimum MIC): 0.125 µg/mL (≈ 0.0766 µM)
- Number of isolates with MIC 0.125 μg/mL [3, 9]: 2
- Number of isolates with MIC 0.25 μg/mL [3, 9]: 10
- Number of isolates with MIC 0.5 μg/mL [3, 9]: 3
- MIC50 ([1]; Staphylococcus aureus, bacteriological broth, 15 Staph. aureus isolates tested, read-out: MIC50): 0.5 µg/mL (≈ 0.306 µM)
- MIC90 ([1]; Staphylococcus aureus, bacteriological broth, 15 Staph. aureus isolates tested, read-out: MIC90): 0.5 µg/mL (≈ 0.306 µM)
- MIC ([1]; Staphylococcus aureus, bacteriological broth, 15 Staph. aureus isolates tested, read-out: Maximum MIC): 0.5 µg/mL (≈ 0.306 µM)
- MIC ([1]; Staphylococcus aureus, bacteriological broth, 15 Staph. aureus isolates tested, read-out: Minimum MIC): 0.125 µg/mL (≈ 0.0766 µM)
- Number of isolates with MIC 0.125 μg/mL [1, 10]: 1
- Number of isolates with MIC 0.25 μg/mL [1, 10]: 2
- Number of isolates with MIC 0.5 μg/mL [1, 10]: 12
- MIC50 ([4]; Streptococcus agalactiae, bacteriological broth, 15 Strep. agalactiae isolates tested, read-out: MIC50): 0.125 µg/mL (≈ 0.0766 µM)
- MIC90 ([4]; Streptococcus agalactiae, bacteriological broth, 15 Strep. agalactiae isolates tested, read-out: MIC90): 0.25 µg/mL (≈ 0.153 µM)
- MIC ([4]; Streptococcus agalactiae, bacteriological broth, 15 Strep. agalactiae isolates tested, read-out: Maximum MIC): 0.25 µg/mL (≈ 0.153 µM)
- MIC ([4]; Streptococcus agalactiae, bacteriological broth, 15 Strep. agalactiae isolates tested, read-out: Minimum MIC): 0.125 µg/mL (≈ 0.0766 µM)
- Number of isolates with MIC 0.125 μg/mL [4, 11]: 12
- Number of isolates with MIC 0.25 μg/mL [4, 11]: 3
- MIC50 ([5]; Streptococcus dysgalactiae, bacteriological broth, 15 Strep. dysgalactiae isolates tested, read-out: MIC50): 0.125 µg/mL (≈ 0.0766 µM)
- MIC90 ([5]; Streptococcus dysgalactiae, bacteriological broth, 15 Strep. dysgalactiae isolates tested, read-out: MIC90): 0.25 µg/mL (≈ 0.153 µM)
- MIC ([5]; Streptococcus dysgalactiae, bacteriological broth, 15 Strep. dysgalactiae isolates tested, read-out: Maximum MIC): 0.25 µg/mL (≈ 0.153 µM)
- MIC ([5]; Streptococcus dysgalactiae, bacteriological broth, 15 Strep. dysgalactiae isolates tested, read-out: Minimum MIC): 0.125 µg/mL (≈ 0.0766 µM)
- Number of isolates with MIC 0.125 μg/mL [5, 12]: 11
- Number of isolates with MIC 0.25 μg/mL [5, 12]: 4
- MIC50 ([6]; Trueperella pyogenes, bacteriological broth, 15 Truep. pyogenes isolates tested, read-out: MIC50): ≤ 0.063 µg/mL
- MIC90 ([6]; Trueperella pyogenes, bacteriological broth, 15 Truep. pyogenes isolates tested, read-out: MIC90): ≤ 0.063 µg/mL
- MIC ([6]; Trueperella pyogenes, bacteriological broth, 15 Truep. pyogenes isolates tested, read-out: Maximum MIC): ≤ 0.063 µg/mL
- MIC ([6]; Trueperella pyogenes, bacteriological broth, 15 Truep. pyogenes isolates tested, read-out: Minimum MIC): ≤ 0.063 µg/mL
- Number of isolates with MIC ≤0.063 μg/mL ([6]; broth, of 15 Truep. pyogenes isolates): 15
- Antimicrobial activity against mastitis-causing pathogens [7]: Good antimicrobial activity
- MIC90 against S. aureus compared with MIC90 of penicillin G [2]: identical
- Distribution of MIC values: isolates with MIC 0.125 μg/ml [2]: 0
- Distribution of MIC values: isolates with MIC 0.25 μg/ml [2]: 0
- Distribution of MIC values: isolates with MIC 0.5 μg/ml [2]: 0
- Distribution of MIC values: isolates with MIC 1 μg/ml [2]: 0
- Distribution of MIC values: isolates with MIC 2 μg/ml [2]: 0
- Distribution of MIC values: isolates with MIC 4 μg/ml [2]: 4
- Distribution of MIC values: isolates with MIC 8 μg/ml [2]: 11
- Distribution of MIC values: isolates with MIC 16 μg/ml [2]: 5
- Distribution of MIC values: isolates with MIC 32 μg/ml [2]: 0
- Distribution of MIC values: isolates with MIC 64 μg/ml [2]: 0
- Distribution of MIC values: isolates with MIC >64 μg/ml [2]: 0
- Distribution of MIC values: isolates with MIC ≤0.063 μg/ml [2]: 0
- MIC90 ([2]; Staphylococcus aureus, read-out: MIC90): 16 µg/mL (≈ 9.81 µM)
- MIC50 ([8]; bacteriological broth, 15 coa-neg Staph. isolates tested, read-out: MIC50): 0.5 µg/mL (≈ 0.306 µM)
- MIC90 ([8]; bacteriological broth, 15 coa-neg Staph. isolates tested, read-out: MIC90): 1 µg/mL (≈ 0.613 µM)
- MIC ([8]; bacteriological broth, 15 coa-neg Staph. isolates tested, read-out: Maximum MIC): 8 µg/mL (≈ 4.9 µM)
- MIC ([8]; bacteriological broth, 15 coa-neg Staph. isolates tested, read-out: Minimum MIC): 0.25 µg/mL (≈ 0.153 µM)
- Number of isolates with MIC 0.25 μg/mL [8, 13]: 6
- Number of isolates with MIC 0.5 μg/mL [8, 13]: 6
- Number of isolates with MIC 1 μg/mL [8, 13]: 2
- Number of isolates with MIC 8 μg/mL [8, 13]: 1

SMILES: CC1(C)S[C@@H]2[C@H](NC(=O)Cc3ccccc3)C(=O)N2[C@H]1C(=O)O [Penicillin G, penicillin G]
- Distribution of MIC values: isolates with MIC 0.125 μg/ml [2]: 0
- Distribution of MIC values: isolates with MIC 0.25 μg/ml [2]: 0
- Distribution of MIC values: isolates with MIC 0.5 μg/ml [2]: 0
- Distribution of MIC values: isolates with MIC 1 μg/ml [2]: 1
- Distribution of MIC values: isolates with MIC 2 μg/ml [2]: 0
- Distribution of MIC values: isolates with MIC 4 μg/ml [2]: 0
- Distribution of MIC values: isolates with MIC 8 μg/ml [2]: 2
- Distribution of MIC values: isolates with MIC 16 μg/ml [2]: 1
- Distribution of MIC values: isolates with MIC 32 μg/ml [2]: 1
- Distribution of MIC values: isolates with MIC 64 μg/ml [2]: 0
- Distribution of MIC values: isolates with MIC >64 μg/ml [2]: 1
- Distribution of MIC values: isolates with MIC ≤0.063 μg/ml [2]: 14
- MIC90 [2]: 16 µg/mL (≈ 47.8 µM)
